Laboratory results reported in paper PMC2364737, “Phase I and pharmacokinetic (PK) study of MAG-CPT (PNU 166148): a polymeric derivative of camptothecin (CPT)” (British Journal of Cancer, 2004).

How the values were obtained:
[1] = test system: patients with advanced solid malignancies; test: Phase I dose escalation study: safety, dose-limiting toxicity and MTD; format: in vivo, human
Method: This was an open-label nonrandomised dose escalation study, conducted in sequential cohorts of patients from two institutions, Aberdeen Royal Infirmary, Aberdeen, and the Beatson Oncology Centre, Glasgow. It was performed under the auspices of the Cancer Research Campaign, London, with sponsorship by Pharmacia and Upjohn, Milan.
All patients had histologically or cytologically proven advanced solid malignancy that was refractory to conventional therapy. […] All patients gave written informed consent according to local Ethics Committee guidelines.
All doses of the investigational agent are expressed as mg of CPT equivalent. The drug was stored at room temperature. The vials were reconstituted with 10 ml normal saline and the dose to be administered was made up in 100 ml saline in a PVC infusion bag.
Thereafter, dose escalation was to continue according to a modified Fibonacci series. The dose escalation scheme could, however, be modified if considered appropriate based on acquired clinical and pharmacokinetic data. The MTD was defined as the highest dose at which at least three of six patients had dose-limiting toxicity (DLT).
Patients were to be retreated at 28-day intervals for up to six cycles. […] Treatment could be delayed for up to 2 weeks to allow resolution of toxicity.
(§1) During the course of the study patients were reviewed in the clinic every week with toxicity assessment, physical examination, FBC, and serum chemistry. Tumour assessment by imaging was repeated every three cycles. Chest X-ray and ECG were repeated at the end of study.

[2] = test system: advanced solid malignancy
Excerpt: as §1

[3] = test system: colon, stomach, pancreas, ovary, breast, lung, and melanoma xenograft models; conditions: preclinical studies; cited from earlier work
patients [4] = conditions: first 3 days of a 28-day cycle; ref Schoemaker et al, 2002; cited from earlier work
patients [5] = conditions: cited from earlier work

Compound | patients with grade 2 dysuria and haematuria during cycle 2 ([1]; 200 mg m^−2) | dose recommended for phase II / further clinical study ([1]; 30-min infusion once every 4 weeks, dose as mg equivalent camptothecin) [mg m^−2] | nausea and vomiting grade 1 ([1]; dose levels 30–120 mg m^−2) | antitumour effect in a patient with renal carcinoma ([2]; 60 mg m^−2, patient had progressive disease with brain metastases) | objective antitumour responses ([2]; all dose levels, 23 patients) | activity in xenograft models [3] | antitumour activity (patients [4]) | responses in early clinical trials (patients [5]; colorectal cancer, small bowel carcinoma, and melanoma) | unpredictable and severe toxicity in early clinical trials (patients [5]; ref Gottlieb et al, 1970, Muggia et al, 1972)
copolymer of N-(hydroxypropyl) methacrylamide, (20-O-(N-methacryloyl-glycyl-aminohexanoyl-glycyl)) camptothecin and N-(2-hydroxypropyl) methacryloyl glycinamide [MAG-CPT] | one of the eight patients | 200 | observed sporadically | regression of cutaneous metastases was observed | No objective antitumour responses were seen | active | no evidence of antitumour activity |  | 
CC[C@@]1(O)C(=O)OCc2c1cc1n(c2=O)Cc2cc3ccccc3nc2-1 [Camptothecin] |  |  |  |  |  |  |  | responses to CPT were observed | myelosuppression, gastrointestinal toxicity, and haemorrhagic cystitis
